Measurements published in patent US9693556B2, “Herbicidal pyridazinone derivatives” (SYNGENTA LIMITED, priority 2011, dated 2017).

Experiments:
Format in all cases: in vivo
[1] = system: Amaranthus retoflexus (AMARE); experiment: Pre-emergence herbicidal glasshouse test on Amaranthus retoflexus; conditions: pre-emergence; 1000 g/h; evaluated after 13 days
Outline: (§1)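 Herbicidal damage was rated 13 days after treatment on a five-point scale, where 5 denotes 80-100% and 1 denotes 0-19% damage. Spraying at 1000 g/h followed sowing by one day (pre-emergence) or eight days (post-emergence).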

[2] = system: Echinochloa crus-galli (ECHCG); experiment: Post-emergence herbicidal glasshouse test on Echinochloa crus-galli; conditions: post-emergence; 1000 g/h; evaluated after 13 days
Outline: as §1

[3] = system: Alopecurus myosuroides (ALOMY); experiment: Pre-emergence herbicidal glasshouse test on Alopecurus myosuroides; conditions: pre-emergence; 1000 g/h; evaluated after 13 days
Outline: as §1

Solanum nigrum (SOLNI) [4] = experiment: Post-emergence herbicidal glasshouse test on Solanum nigrum; conditions: post-emergence; 1000 g/h; evaluated after 13 days
Outline: as §1

[5] = system: Alopecurus myosuroides (ALOMY); experiment: Post-emergence herbicidal glasshouse test on Alopecurus myosuroides; conditions: post-emergence; 1000 g/h; evaluated after 13 days
Outline: as §1

Setaria faberi (SETFA) [6] = experiment: Pre-emergence herbicidal glasshouse test on Setaria faberi; conditions: pre-emergence; 1000 g/h; evaluated after 13 days
Outline: as §1

[7] = system: Echinochloa crus-galli (ECHCG); experiment: Pre-emergence herbicidal glasshouse test on Echinochloa crus-galli; conditions: pre-emergence; 1000 g/h; evaluated after 13 days
Outline: as §1

Solanum nigrum (SOLNI) [8] = experiment: Pre-emergence herbicidal glasshouse test on Solanum nigrum; conditions: pre-emergence; 1000 g/h; evaluated after 13 days
Outline: as §1

Setaria faberi (SETFA) [9] = experiment: Post-emergence herbicidal glasshouse test on Setaria faberi; conditions: post-emergence; 1000 g/h; evaluated after 13 days
Outline: as §1

[10] = system: Ipomoea hederacea (IPOHE); experiment: Pre-emergence herbicidal glasshouse test on Ipomoea hederacea; conditions: pre-emergence; 1000 g/h; evaluated after 13 days
Outline: as §1

[11] = system: Ipomoea hederacea (IPOHE); experiment: Post-emergence herbicidal glasshouse test on Ipomoea hederacea; conditions: post-emergence; 1000 g/h; evaluated after 13 days
Outline: as §1

[12] = system: Amaranthus retoflexus (AMARE); experiment: Post-emergence herbicidal glasshouse test on Amaranthus retoflexus; conditions: post-emergence; 1000 g/h; evaluated after 13 days
Outline: as §1

SMILES	PRE Application AMARE herbicidal damage (five point scale) [1]	POST Application ECHCG herbicidal damage (five point scale) [2]	PRE Application ALOMY herbicidal damage (five point scale) [3]	POST Application SOLNI herbicidal damage (five point scale) (Solanum nigrum (SOLNI) [4])	POST Application ALOMY herbicidal damage (five point scale) [5]	PRE Application SETFA herbicidal damage (five point scale) (Setaria faberi (SETFA) [6])	PRE Application ECHCG herbicidal damage (five point scale) [7]	PRE Application SOLNI herbicidal damage (five point scale) (Solanum nigrum (SOLNI) [8])	POST Application SETFA herbicidal damage (five point scale) (Setaria faberi (SETFA) [9])	PRE Application IPOHE herbicidal damage (five point scale) [10]	POST Application IPOHE herbicidal damage (five point scale) [11]	POST Application AMARE herbicidal damage (five point scale) [12]
CSc1ccc(-c2c(C(F)(F)F)ccn(-c3cnn(C)c(=O)c3O)c2=O)cc1 [Compound 7.036]	5 (5=80-100% damage)	4 (4=60-79% damage)	2 (2=20-39% damage)	5 (5=80-100% damage)	2 (2=20-39% damage)	2 (2=20-39% damage)	1 (1=0-19% damage)	5 (5=80-100% damage)	3 (3=40-59% damage)	4 (4=60-79% damage)	4 (4=60-79% damage)	5 (5=80-100% damage)
Cc1cc(Cl)ccc1-c1c(C(F)(F)F)ccn(-c2cnn(C)c(=O)c2O)c1=O [Compound 7.038]	5 (5=80-100% damage)	5 (5=80-100% damage)	5 (5=80-100% damage)	5 (5=80-100% damage)	5 (5=80-100% damage)	3 (3=40-59% damage)	5 (5=80-100% damage)	5 (5=80-100% damage)	3 (3=40-59% damage)	4 (4=60-79% damage)	5 (5=80-100% damage)	5 (5=80-100% damage)
Cn1ncc(-c2cnc(C(F)(F)F)nc2N2CCOCC2)c(O)c1=O [Compound 8.001, 4-hydroxy-2-methyl-5-[4-morpholino-2-(trifluoromethyl)pyrimidin-5-yl]pyridazin-3-one]	5 (5=80-100% damage)	5 (5=80-100% damage)	1 (1=0-19% damage)	5 (5=80-100% damage)	1 (1=0-19% damage)	2 (2=20-39% damage)	5 (5=80-100% damage)	5 (5=80-100% damage)	2 (2=20-39% damage)	3 (3=40-59% damage)	5 (5=80-100% damage)	5 (5=80-100% damage)
Cn1ncc(-c2ccc(C(F)(F)F)n(-c3cccc(C(F)(F)F)n3)c2=O)c(O)c1=O [Compound 9.001]	2 (2=20-39% damage)	4 (4=60-79% damage)	3 (3=40-59% damage)	4 (4=60-79% damage)	4 (4=60-79% damage)	1 (1=0-19% damage)	2 (2=20-39% damage)	1 (1=0-19% damage)	4 (4=60-79% damage)	1 (1=0-19% damage)	1 (1=0-19% damage)	3 (3=40-59% damage)
C=CCn1cccc(-c2cnn(C)c(=O)c2O)c1=O [Compound 9.002]	1 (1=0-19% damage)	2 (2=20-39% damage)	1 (1=0-19% damage)	5 (5=80-100% damage)	1 (1=0-19% damage)	1 (1=0-19% damage)	1 (1=0-19% damage)	1 (1=0-19% damage)	2 (2=20-39% damage)	1 (1=0-19% damage)	2 (2=20-39% damage)	4 (4=60-79% damage)
Cn1cccc(-c2cnn(C)c(=O)c2O)c1=O [Compound 9.003]	2 (2=20-39% damage)	1 (1=0-19% damage)	1 (1=0-19% damage)	4 (4=60-79% damage)	1 (1=0-19% damage)	1 (1=0-19% damage)	1 (1=0-19% damage)	1 (1=0-19% damage)	2 (2=20-39% damage)	1 (1=0-19% damage)	2 (2=20-39% damage)	4 (4=60-79% damage)
COc1ccc(Cn2cccc(-c3cnn(C)c(=O)c3O)c2=O)cc1 [Compound 9.004]	1 (1=0-19% damage)	1 (1=0-19% damage)	1 (1=0-19% damage)	4 (4=60-79% damage)	1 (1=0-19% damage)	1 (1=0-19% damage)	1 (1=0-19% damage)	1 (1=0-19% damage)	1 (1=0-19% damage)	1 (1=0-19% damage)	3 (3=40-59% damage)	4 (4=60-79% damage)
Cn1ncc(-c2cccn(CC(F)(F)F)c2=O)c(O)c1=O [Compound 9.005]	1 (1=0-19% damage)	1 (1=0-19% damage)	1 (1=0-19% damage)	4 (4=60-79% damage)	1 (1=0-19% damage)	1 (1=0-19% damage)	1 (1=0-19% damage)	1 (1=0-19% damage)	1 (1=0-19% damage)	1 (1=0-19% damage)	2 (2=20-39% damage)	2 (2=20-39% damage)
Cn1ncc(-c2cccn(CC3CC3)c2=O)c(O)c1=O [Compound 9.006]	1 (1=0-19% damage)	1 (1=0-19% damage)	1 (1=0-19% damage)	3 (3=40-59% damage)	2 (2=20-39% damage)	1 (1=0-19% damage)	1 (1=0-19% damage)	1 (1=0-19% damage)	2 (2=20-39% damage)	1 (1=0-19% damage)	2 (2=20-39% damage)	3 (3=40-59% damage)
